From patent US6043058A, “Preparation of cyclic depsipeptide compounds and a novel cyclic depsipeptide” (Maiji Seika Kaisha Ltd., priority 1996, dated 2000) come the findings set out here.

Series [1] in a line: Solubilities (physico-chemical properties). Format: physicochemical. The text has this: (§1) Physico-chemical properties of PF […] substance, PF […] substance and PF […] substance thus obtained are given below: […]
The nature of series [2]: Classification by basicity, acidity or neutrality. Format: physicochemical.
Excerpt: as §1

Series [3] concerns fowl roundworms. The series can be described thus: Anthelmintic activity. As to conditions: parasite not named at this place; stated in words only. It counts as in vivo.

For the molecule `CC(C)C[C@H]1C(=O)O[C@H](C)C(=O)N(C)[C@@H](CC(C)C)C(=O)O[C@H](C)C(=O)N(C)[C@@H](CC(C)C)C(=O)O[C@H](C)C(=O)N(C)[C@@H](CC(C)C)C(=O)O[C@H](C)C(=O)N1C` [PF 1022F substance], in series [1] (chloroform, acetone, ethyl acetate, methanol and dimethylsulfoxide), the “Solubility in organic solvents” value was “Soluble”. Further, the Solubility in n-hexane result in series [1] (solvent: n-hexane) is given as “Insoluble”. Moreover, the Solubility in water result in series [1] (solvent: water) is “Insoluble”. Moreover, in series [2], the “Classification by basicity, acidity or neutrality” value is recorded as “Neutral substance”. For the same molecule, the “Anthelmintic activities (general statement)” value in series [3] is recorded as “having anthelmintic activities”.
